Experimental data as given in patent US20250288645A1, “USE OF GsMTx4 AND GsMTx4 CONJUGATES TO IMPROVE RECOVERY FROM JOINT INJURY” (priority 2023, published 2025).
No end group written: not given here.

Legend:
[1] = tested on: Piezo1; experiment: Massive rotator cuff tear mouse model: Piezo1 immunohistochemistry; format: in vivo
Protocol: A massive rotator cuff tear (RCT) model was performed by surgical ligation of the supraspinatus and infraspinatus tendons of the right shoulder of 14-week-old C57Bl/6 male and female mice through a deltoid splitting approach. Mice were anesthetized with 2% isoflurane gas mixed with oxygen. A single dose of buprenorphine SR (0.5 mg/kg) was injected subcutaneously at the nape. The right shoulder was prepped using a chemical hair removal agent, followed by betadine solution for 2 minutes and a rinse with 70% ethanol. The remaining steps were performed under sterile technique. A #11 scalpel blade was used to sharply incise the skin and subcutaneous tissues in a longitudinal incision over the palpable border of the lateral shoulder. The deltoid fascia and muscle were sharply incised in line with the skin incision with care not to dissect distally along the humerus to protect the axillary nerve. […] Animals were monitored daily for 3 days post-operatively, and no adverse events were noted. […]
For Piezo1 immunohistochemistry, deparaffinized and rehydrated slides were incubated in citrate buffer (10 mM sodium citrate, 0.05% Tween-20, pH 6.0) for […] at 75° C. […] Chondrocyte Piezo1 protein expression was quantified by average threshold intensity of immunofluorescence by ImageJ analysis through raw intensity averaging. […]

[2] = tested on: chondrocytes; experiment: Massive rotator cuff tear mouse model: chondrocyte mechano-vulnerability; format: in vivo; conditions: rotator cuff injury, subcutaneous injection; versus contralateral control joint and saline-injected animals
Protocol: Ethical approval was obtained from the appropriate institutional committee Humeri were harvested from wild-type 12-22 week old C57Bl/6 male and female mice. Each specimen was placed in calcium imaging buffer with 2 mM calcium chloride and subsequently incubated with 10 μM calcein-AM for 30 minutes at 37° C. To indicate intracellular esterase activity of living cells, each specimen was incubated with 10 μM yoda1, a Piezo1-specific agonist, 5 nM GSK101, a TRPV4-agonist, or control (DMSO 0.25%, n=7-10/group) in calcium imaging buffer for 15 minutes. Specimens were then incubated with 1.5 nM ethidium homodimer-1 for 3 minutes to indicate loss of plasma membrane integrity in dead cells. The specimen was then arranged in a custom 3-D printed holding device such that the chondrocytes within the apex of sphericity of the humeral head were facing the glass well of a dish to be imaged on an inverted confocal microscope. […] A custom MATLAB image processing algorithm was developed to quantify cell viability. […] Then, watershed segmentation, distance transform, and centroid approximation algorithms were created and applied to segment and quantify individual cells based on intensity values. This facilitated the cell counting process, allowed quantification of the total cell area, and allowed adjustment of the region of interest between before- and after-impact micrographs. […]

Substance: GsMTx4 (GCLEFWWKCNPNDDKCCRPKLKCSKLFKLCNFSF-NH2; ends and bridges not checked; listed as Grammostola spatulata)
- humeral head chondrocyte Piezo1 protein expression versus contralateral control joint ([1]; RC ligation, subcutaneous twice weekly, 14 weeks post-operatively, p<0.05): significantly lower humeral head chondrocyte Piezo1 protein expression
- Piezo1 expression in cells from RCT shoulders versus animals not treated with GsMTx4 ([1]; RCT, treated post-injury with GsMTx4): reduced expressed of Piezo1
- chondrocyte vulnerability [2]: reduction in chondrocyte vulnerability
